We go through three substances from patent US7563445B2, “CD40 binding molecules and CTL peptides for treating tumors” (priority 1998, dated 2009).

One assay relates to E1A-specific CTL clone. The assay can be described thus: Spleen cells of peptide-injected mice as stimulator cells for an E1A-specific CTL clone ([3H]-thymidine incorporation). In kind it is cell-based, C57BL/6 mice. As to conditions: splenocytes isolated 16 h after s.c. injection of 100 μg peptide in IFA. On the procedure:
Spleen cells derived from untreated C57BL/6 mice (−), or from mice injected s.c. 16 h earlier with 100 μg of E1A- or HPV16 E7-peptide in IFA were used as stimulator cells for an E1A-specific CTL clone. [^3H]-thymidine incorporation (cpm) +/−S. E. M. is shown for different effector to stimulator concentrations,. without subtraction of background counts. Results are representative of 5 independent experiments.
Spleen cells from these mice were isolated 16h later and used as stimulator cells for an E1A-specific CTL clone in vitro.
Background: Incorporation of labelled thymidine or its analogues reports DNA synthesis.

The subject of assay [1] is HPV16 transformed syngeneic cells (TC-1). In words: Therapy of HPV16 E6/E7 transformed tumor cells (TC-1) by peptide plus in vivo CD40 triggering. As to conditions: treated 6 days after s.c. injection of 25.000 TC-1 cells; 100 μg peptide i.p. in IFA; n=10. On the set-up: species or system C57BL/6 mice. On the procedure: Mice were injected s.c with 25.000 HPV16 transformed syngeneic cells (TC-1). C57BL/6 mice were left untreated (-◯-) or after 6 days received 100 μg HPV16 E7-peptide i.p. in IFA (-□-), 100 μg HPV16 E7-peptide i.p. in IFA in combination with the anti-CD40 mAb FGK-45 (-▪-) or a control peptide i.p. in IFA in combination with the anti-CD40 mAb FGK-45 (-●-). The percentage of tumor bearing mice is depicted for different treatment groups (n=10) in (a). The differences between the group treated with the HPV16-peptide plus the anti-CD40 mAb and the other three groups were statistically significant (p<0.01) (Log-Rank test). In (b) the percentage of surviving animals is shown (E7-peptide-treated group vs E7-peptide plus anti-CD40-treated group: p=0.002, Log-Rank test).
It was examined whether CD40-triggering in vivo is beneficial to the outcome of vaccination with an HPV16 E7-derived peptide.

Assay [2] has the same test system. As to conditions: preventive vaccination with peptide, prior knowledge; cited from earlier work.
Another assay relates to E1A-specific CTL. The assay can be described thus: E1A-peptide in IFA with in vivo CD40-triggering: E1A-specific CTL cytotoxicity and Db/E1A tetramer staining. The arrangement: species or system C57BL/6 mice. As to conditions: spleen of vaccinated mice. An excerpt: Since CD4^+ T cell-mediated helper activity has been implicated in the prevention of peripheral CTL tolerance induction, the inventors addressed the question whether CD40-triggering in vivo is sufficient to prevent peripheral E1A-specific CTL tolerization.

The target of a further assay is T1, CD40 (Mus musculus, UniProt P27512).
T1 construct: endogenous in cells
The assay can be described thus: Cross-priming of E1B-specific CTLs in mice immunized with Ad5E1-BALB/c MECs, CD40 activation replacing CD4+ T help. In kind it is in vivo. As to conditions: CD4-depleted mice after immunization; LPS 50 μg intravenous; IL-2 1×10^5 units in IFA subcutaneous (not shown).
Text: (§1) Each line represents one mouse.
as §1

T1 sequence (P27512 20-289): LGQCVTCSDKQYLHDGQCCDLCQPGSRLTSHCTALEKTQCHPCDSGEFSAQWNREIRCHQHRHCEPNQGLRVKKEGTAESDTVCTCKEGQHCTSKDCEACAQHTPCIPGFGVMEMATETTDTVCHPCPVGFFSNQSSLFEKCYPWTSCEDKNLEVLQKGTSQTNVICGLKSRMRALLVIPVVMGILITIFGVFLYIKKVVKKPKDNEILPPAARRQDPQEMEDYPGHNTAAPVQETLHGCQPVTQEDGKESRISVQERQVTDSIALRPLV

As for “RAHYNIVTF (Human Papilloma Virus Type 16 E7 derived peptide) [E7-peptide]”, in the assay with E1A-specific CTL clone, the “Proliferation of E1A-specific CTL clone on splenocytes” value is recorded as “failed to do so”. The “Tumor growth / outgrowth” value in assay [1] was “able to slow down tumor growth, but eventually most animals succumb to the tumor”. Further, the “Immunity against a challenge with HPV16-transformed tumor cells” value in assay [2] was “induces protective CTL-mediated immunity”.
In the case of “SGPSNTPPEI (Human Adenovirus E1A derived peptide) [E1A-peptide]”, the “Proliferation of E1A-specific CTL clone on splenocytes” value with E1A-specific CTL clone is reported as “induced specific proliferation”. Besides, in the assay with E1A-specific CTL, the “Percentage of CD8+ cells that stained with the Db/E1A tetramers” value is given as “approximately 3%”.
bacterial lipopolysaccharide [LPS]: at CD40, the “E1B-specific CTL activity / CTL priming” value is on record as “neither LPS or IL-2 treatment resulted in detectable CTL priming”.
